The target in this assay is T1, Diacylglycerol O-acyltransferase 2 (Homo sapiens, UniProt Q96PD7).
T1 sequence (Q96PD7 whole entry): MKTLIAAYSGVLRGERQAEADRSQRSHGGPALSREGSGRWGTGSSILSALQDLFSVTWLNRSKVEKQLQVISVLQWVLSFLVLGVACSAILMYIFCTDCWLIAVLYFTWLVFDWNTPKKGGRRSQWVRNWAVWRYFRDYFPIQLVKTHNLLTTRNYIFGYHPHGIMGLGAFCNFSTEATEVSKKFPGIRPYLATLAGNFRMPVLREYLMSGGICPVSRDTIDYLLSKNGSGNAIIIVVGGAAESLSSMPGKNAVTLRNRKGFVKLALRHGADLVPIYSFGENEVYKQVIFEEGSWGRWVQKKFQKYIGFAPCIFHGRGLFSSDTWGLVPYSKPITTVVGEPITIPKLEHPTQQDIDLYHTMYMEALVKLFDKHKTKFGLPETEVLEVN
In words: Enzymatic Activity Assay: DGAT2 activity was determined by measuring the amount of enzymatic product triolein (1,2,3-Tri(cis-9-octadecenoyl)glycerol) using the membrane prep mentioned above. The assay was carried out in deep well 384 plates in a final volume of 40 μL at room temperature. The assay mixture contained the following: assay buffer (100 mM Tris·Cl, pH 7.0, 20 mM MgCl2, 5% ethanol), 25 μM of diolein, 10 μM of oleoyl-CoA and 10 ng/μL of DGAT2 membrane.

The term IC50 denotes the concentration that gives 50% inhibition.

Structures are written as SMILES.

`CC(C)(C)NC(=O)N1CCc2c(-c3cccc(C(F)(F)F)c3)ccc(C(=O)NCc3nc(-c4ccccn4)no3)c2C1`: the IC50 turned out to be 588 nM.

Turning to `CC(C)(C)NC(=O)N1CCc2c(-c3cccc(C(F)(F)F)c3)ccc(C(=O)NCc3noc(-c4ccccc4)n3)c2C1`, the IC50 stood at 326 nM.

The values above are taken from ChEMBL document CHEMBL5725601, “Tetrahydroisoquinoline derivatives useful as inhibitors of diacylglyceride O-acyltransferase 2” (2018).
